Source: PubChem BioAssay (NCI)
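Following 48 hours of exposure in 96-well plates, responses at five concentrations were used to interpolate endpoints linearly. GI50 is the concentration that inhibits growth by half. Definition used: TGI = concentration required for complete inhibition of growth.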

Tests used:
Experiment in all cases: NCI tumour cell line growth inhibition, 48 h
[1] = test system: BT-549 breast
[2] = test system: NCI/ADR-RES ovarian
[3] = test system: PC-3 prostate
[4] = test system: T-47D breast

| Compound | GI50 [1] | TGI [1] | GI50 [2] | TGI [2] | GI50 [3] | TGI [3] | GI50 [4] | TGI [4] |
| --- | --- | --- | --- | --- | --- | --- | --- | --- |
| NC(CCl)=NCC12CC3CC(CC(C3)C1)C2 | 2430 nM | 14.2 µM | 0.625 µM | 14.4 µM | 2050 nM | 13.3 µM | 1200 nM | 20.1 µM |
| COc1ccc(-c2c(NC(=O)Nc3ccc(Cl)c(C(F)(F)F)c3)cnn2-c2ccc(S(N)(=O)=O)cc2)cc1 | 1810 nM | 4.4 µM | 24.7 µM | > 100 µM | 2870 nM | 11.4 µM | 2690 nM | 12.4 µM |
| COc1ccc(-c2oc3ncnc(N)c3c2-c2ccc(NC(=O)Nc3cc(C(F)(F)F)ccc3F)cc2)cc1 | 1820 nM | 5.08 µM | 1.17 µM | 6.24 µM | 1940 nM | 11.4 µM | 1940 nM | 10.1 µM |
| COC(=O)[C@@H](C)C[C@H](Cc1ccc(F)cc1)NC(=O)c1csc([C@@H](C[C@H](C(C)C)N(C)C(=O)[C@@H](NC(=O)[C@H]2CCCCN2C)C2CC2)OC(C)=O)n1 | 188 nM | 3.72 µM | 6.88 µM | > 25 µM | 415 nM | > 25 µM | > 25000 nM | > 25 µM |
| COc1ccc(NC(=O)c2ccc(C(F)(F)F)nc2Nc2ccc(Cl)cc2C)cc1Cl | 4880 nM | 18.6 µM | 3.17 µM | 14.9 µM | 3530 nM | 12.1 µM | 2580 nM | 28.9 µM |
| COc1cc(OCCCN2CCCC2)ccc1Nc1ncc(Cl)c(Nc2ccccc2P(C)(C)=O)n1 | 3860 nM | 11.7 µM | 12.6 µM | > 77.4 µM | 4110 nM | 49.6 µM | 8710 nM | 54.3 µM |
| CC1(C)N=C(N)N=C(N)N1c1cccc(CCCCc2ccc(Cl)c(S(=O)(=O)F)c2)c1 | 1350 nM | 17.7 µM | > 100 µM | > 100 µM | – | – | 13800 nM | 30.9 µM |
| FC(F)(F)c1cccc(Oc2ccc(Nc3ncnc4ccc(OCCCN5CCOCC5)cc34)cc2Cl)c1 | 3090 nM | 16.7 µM | 2.82 µM | 13.8 µM | 2400 nM | 8.58 µM | 1290 nM | 6.35 µM |
| Cc1cc(C)c([I+]c2c(C)cc(C)cc2C)c(C)c1 | 466 nM | 1.59 µM | 6.54 µM | 26.8 µM | 259 nM | 1.14 µM | 406 nM | 2.19 µM |
